Reference: paper PMC10447267, “Assessment of the potential of the MET inhibitor tepotinib to affect the pharmacokinetics of CYP3A4 and P-gp substrates” (Investigational New Drugs, 2023)
Where two headings read alike, the source gives them in different places.

Columns and labels:
[1] = target: T1, CYP2D6 (Homo sapiens, UniProt P10635); assay: biochemical; type: in vitro ADME; settings: for inhibition at 49.5 µM: both sexes, human, microsomes
T1 construct: pooled mixed-gender human liver microsomes; from tissue; host or cells: pooled mixed-gender human liver microsomes
Description: (§1) The potential of tepotinib and MSC2571109A to inhibit CYP450 enzymes CYP1A2, 2A6, 2B6, 2C8, 2C9, 2C19, 2D6, 2E1, and 3A4/5 in vitro was evaluated using CYP-catalyzed reactions in pooled mixed-gender human liver microsomes using specific substrates and liquid chromatography/tandem mass spectrometry (LC–MS/MS) readouts. […] Testosterone 6β-hydroxylation was assessed in the MSC2571109A study. Assessments of mechanism-based inhibition of the above listed CYP450 enzymes were conducted after pre-incubation of the microsomes with tepotinib or MSC2571109A. A brief summary of the incubation methods, including details of substrates used for the other CYP enzymes (which are not pertinent to this article) are presented in Online Resource 1. The LC–MS/MS-based methods used were consistent with those previously described in the literature.

[2] = target: T2, CYP2E1 (Homo sapiens, UniProt P05181); assay: biochemical; type: in vitro ADME; settings: for inhibition at 49.5 µM: both sexes, human, microsomes
T2 construct: pooled mixed-gender human liver microsomes; from tissue; host or cells: pooled mixed-gender human liver microsomes
Description: as §1

[3] = system: CYP3A4/5; type: in vitro ADME, human
Description: (§2) In vitro studies in primary human hepatocyte cultures were conducted to assess the potential of tepotinib to induce human CYP1A1/2, 2B6 and 3A4/5 activity, the latter based on testosterone 6β-hydroxylation reactions (Online Resource 2). […] The studies included positive (rifampin) and vehicle (DMSO) controls. A negative control (flumazenil) was also included in the mRNA studies. The study designs, test systems and selection of prototypical inducers used in these studies were consistent with PhRMA, FDA and EMA guidelines.

[4] = target: T3, CYP2A6 (Homo sapiens, UniProt P11509); assay: CYP2A6 inhibition in pooled human liver microsomes; type: in vitro ADME; settings: Coumarin 7-hydroxylation; for inhibition at 49.5 µM: both sexes, human, pooled human liver microsomes, probe coumarin
T3 construct: pooled mixed-gender human liver microsomes; from tissue; host or cells: pooled mixed-gender human liver microsomes
T3 sequence (P11509 1-494): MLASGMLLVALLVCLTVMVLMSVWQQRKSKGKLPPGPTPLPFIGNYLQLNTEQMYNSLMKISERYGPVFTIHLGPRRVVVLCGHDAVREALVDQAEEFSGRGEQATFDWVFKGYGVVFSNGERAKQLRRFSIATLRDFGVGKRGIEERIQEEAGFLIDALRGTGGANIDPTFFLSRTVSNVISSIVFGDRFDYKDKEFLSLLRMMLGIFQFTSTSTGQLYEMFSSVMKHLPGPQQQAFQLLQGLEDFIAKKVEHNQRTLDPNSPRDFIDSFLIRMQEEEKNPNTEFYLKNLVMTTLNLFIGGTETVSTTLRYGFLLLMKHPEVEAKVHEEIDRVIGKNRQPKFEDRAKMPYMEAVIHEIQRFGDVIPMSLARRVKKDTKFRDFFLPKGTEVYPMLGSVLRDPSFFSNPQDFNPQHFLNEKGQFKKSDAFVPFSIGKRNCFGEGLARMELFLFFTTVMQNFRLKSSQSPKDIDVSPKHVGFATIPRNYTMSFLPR
Description: as §1

[5] = target: T4, CYP2C9 (Homo sapiens, UniProt P11712); assay: CYP2C9 inhibition in pooled human liver microsomes; type: in vitro ADME; settings: for inhibition at 49.5 µM: both sexes, human, pooled human liver microsomes, probe diclofenac
T4 construct: pooled mixed-gender human liver microsomes; from tissue; host or cells: pooled mixed-gender human liver microsomes
Description: as §1

[6] = target: P-gp (Homo sapiens, UniProt P08183); assay: P-gp inhibition in Caco-2 cell monolayers with [3H]-digoxin; type: in vitro ADME; set-up: An in vitro assay in Caco-2 cell monolayers; endogenous in cells; host or cells: Caco-2
Description: An in vitro assay in Caco-2 cell monolayers was performed to assess the P-gp inhibition potential of tepotinib (Online Resource 4). [^3H]-digoxin was used as a P-gp probe substrate. Control experiments were conducted to ensure acceptable performance of the cells. The extent of inhibition in these studies, expressed as IC50, was determined by quantification of the transport or uptake of ^3H-digoxin in Caco-2 cells in the absence and presence of tepotinib.
To assess the potential clinical risk and to identify whether an in vivo DDI study was required, drug concentration ([I])/IC50 ratios and/or R-values were calculated considering the mean human steady state exposure of parent drug and its metabolite, observed at the clinical dose of 500 mg tepotinib. Results were assessed according to both FDA and EMA criteria.

[7] = system: CYP2B6; assay: CYP2B6 activity induction in primary human hepatocyte cultures; type: in vitro ADME; settings: enzyme activity quantification
Description: as §2

[8] = target: T5, CYP2C8 (Homo sapiens, UniProt P10632); assay: CYP2C8 inhibition in pooled human liver microsomes; type: in vitro ADME; settings: Amodiaquine N-dealkylation
T5 sequence (P10632 1-490): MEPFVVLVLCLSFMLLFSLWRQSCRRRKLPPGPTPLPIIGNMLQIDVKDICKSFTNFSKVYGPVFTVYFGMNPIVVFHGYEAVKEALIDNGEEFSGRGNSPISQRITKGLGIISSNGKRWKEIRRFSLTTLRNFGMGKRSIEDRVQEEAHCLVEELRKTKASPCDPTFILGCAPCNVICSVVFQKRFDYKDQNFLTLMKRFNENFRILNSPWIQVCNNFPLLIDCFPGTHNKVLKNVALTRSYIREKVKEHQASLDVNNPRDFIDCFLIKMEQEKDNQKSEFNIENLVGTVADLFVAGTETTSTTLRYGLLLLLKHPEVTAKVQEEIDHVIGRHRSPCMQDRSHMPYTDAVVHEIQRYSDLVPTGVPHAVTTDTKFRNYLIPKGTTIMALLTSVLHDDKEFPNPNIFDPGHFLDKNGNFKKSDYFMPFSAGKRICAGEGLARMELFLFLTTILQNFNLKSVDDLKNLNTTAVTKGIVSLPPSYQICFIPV
Description: as §1

[9] = 30-min preincubation, read-out: Time-dependent inhibition IC50
[10] = human liver microsomes, zero-minute preincubation, read-out: Direct inhibition IC50
[11] = P-gp, clinical dose of 500 mg once daily

T2 sequence (P05181 whole entry): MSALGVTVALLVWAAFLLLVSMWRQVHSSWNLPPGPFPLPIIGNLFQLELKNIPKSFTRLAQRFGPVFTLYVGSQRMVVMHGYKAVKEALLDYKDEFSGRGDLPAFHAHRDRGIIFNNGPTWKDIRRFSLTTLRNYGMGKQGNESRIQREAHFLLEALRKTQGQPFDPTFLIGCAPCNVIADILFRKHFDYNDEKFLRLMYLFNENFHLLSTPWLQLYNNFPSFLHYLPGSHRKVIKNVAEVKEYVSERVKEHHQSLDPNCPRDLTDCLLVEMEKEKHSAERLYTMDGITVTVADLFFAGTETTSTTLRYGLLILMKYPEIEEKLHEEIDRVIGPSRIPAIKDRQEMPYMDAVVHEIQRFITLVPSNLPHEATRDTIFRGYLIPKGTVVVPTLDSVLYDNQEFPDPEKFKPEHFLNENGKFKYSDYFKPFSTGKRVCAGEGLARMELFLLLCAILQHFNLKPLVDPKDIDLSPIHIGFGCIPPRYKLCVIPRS
Sequence of P-gp (P08183 whole entry): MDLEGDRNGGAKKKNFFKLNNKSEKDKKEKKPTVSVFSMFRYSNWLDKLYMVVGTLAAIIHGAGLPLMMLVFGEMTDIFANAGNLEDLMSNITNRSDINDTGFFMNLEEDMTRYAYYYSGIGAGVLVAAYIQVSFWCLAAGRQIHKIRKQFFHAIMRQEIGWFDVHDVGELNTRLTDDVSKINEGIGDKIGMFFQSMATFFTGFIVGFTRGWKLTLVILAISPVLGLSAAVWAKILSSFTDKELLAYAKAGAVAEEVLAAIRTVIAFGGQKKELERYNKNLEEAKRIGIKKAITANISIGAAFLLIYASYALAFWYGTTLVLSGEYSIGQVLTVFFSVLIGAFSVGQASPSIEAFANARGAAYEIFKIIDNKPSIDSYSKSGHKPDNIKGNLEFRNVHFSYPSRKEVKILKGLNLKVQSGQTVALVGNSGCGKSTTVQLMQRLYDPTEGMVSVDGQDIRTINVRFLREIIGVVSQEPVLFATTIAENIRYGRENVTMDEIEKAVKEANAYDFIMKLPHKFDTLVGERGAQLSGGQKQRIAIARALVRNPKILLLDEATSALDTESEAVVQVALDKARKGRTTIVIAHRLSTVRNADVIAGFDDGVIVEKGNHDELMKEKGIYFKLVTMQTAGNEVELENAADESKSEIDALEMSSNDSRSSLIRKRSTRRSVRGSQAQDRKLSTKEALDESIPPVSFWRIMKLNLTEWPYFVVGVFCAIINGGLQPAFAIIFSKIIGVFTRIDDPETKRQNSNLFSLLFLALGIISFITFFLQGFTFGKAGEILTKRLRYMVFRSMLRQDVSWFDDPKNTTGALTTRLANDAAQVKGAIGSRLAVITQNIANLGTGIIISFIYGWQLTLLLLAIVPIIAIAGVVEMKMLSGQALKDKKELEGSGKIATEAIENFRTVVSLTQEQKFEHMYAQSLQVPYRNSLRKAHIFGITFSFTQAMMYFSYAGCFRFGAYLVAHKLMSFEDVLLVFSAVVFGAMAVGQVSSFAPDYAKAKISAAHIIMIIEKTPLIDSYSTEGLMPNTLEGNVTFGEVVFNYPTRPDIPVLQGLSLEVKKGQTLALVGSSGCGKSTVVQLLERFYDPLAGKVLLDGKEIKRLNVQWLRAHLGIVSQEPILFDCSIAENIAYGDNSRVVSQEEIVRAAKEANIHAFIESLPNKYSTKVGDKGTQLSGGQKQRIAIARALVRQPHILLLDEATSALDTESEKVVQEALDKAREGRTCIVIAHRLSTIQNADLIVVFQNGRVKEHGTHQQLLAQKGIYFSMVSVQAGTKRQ
T1 sequence (P10635 whole entry): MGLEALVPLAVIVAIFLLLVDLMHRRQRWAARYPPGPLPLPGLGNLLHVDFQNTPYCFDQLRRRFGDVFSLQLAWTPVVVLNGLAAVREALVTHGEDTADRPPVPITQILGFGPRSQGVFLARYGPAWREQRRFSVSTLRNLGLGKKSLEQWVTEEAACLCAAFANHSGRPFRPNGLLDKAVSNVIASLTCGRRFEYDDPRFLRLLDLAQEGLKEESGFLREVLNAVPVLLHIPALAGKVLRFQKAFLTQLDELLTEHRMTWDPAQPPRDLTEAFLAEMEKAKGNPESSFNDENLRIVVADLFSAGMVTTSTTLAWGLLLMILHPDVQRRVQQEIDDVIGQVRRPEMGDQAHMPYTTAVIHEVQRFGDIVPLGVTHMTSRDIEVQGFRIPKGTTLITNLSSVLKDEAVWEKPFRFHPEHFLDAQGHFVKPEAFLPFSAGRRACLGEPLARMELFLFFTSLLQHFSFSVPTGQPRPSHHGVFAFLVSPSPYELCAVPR
T4 sequence (P11712 whole entry): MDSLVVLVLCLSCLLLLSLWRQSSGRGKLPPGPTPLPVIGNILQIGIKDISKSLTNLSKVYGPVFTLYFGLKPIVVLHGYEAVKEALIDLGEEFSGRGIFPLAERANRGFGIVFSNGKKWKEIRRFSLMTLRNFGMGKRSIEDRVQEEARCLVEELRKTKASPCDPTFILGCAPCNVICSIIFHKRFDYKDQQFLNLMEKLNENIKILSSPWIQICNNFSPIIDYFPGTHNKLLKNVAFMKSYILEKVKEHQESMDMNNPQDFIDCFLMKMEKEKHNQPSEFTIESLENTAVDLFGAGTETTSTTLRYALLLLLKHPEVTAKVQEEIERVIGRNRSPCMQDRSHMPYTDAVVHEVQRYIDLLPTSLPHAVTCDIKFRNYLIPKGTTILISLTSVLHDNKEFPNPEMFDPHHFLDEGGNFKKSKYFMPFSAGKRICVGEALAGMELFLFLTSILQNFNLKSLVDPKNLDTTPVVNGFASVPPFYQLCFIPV

CN1CCC(COc2cnc(-c3cccc(Cn4nc(-c5cccc(C#N)c5)ccc4=O)c3)nc2)CC1 [tepotinib]
IC50 [1]: > 49.5 µM
Potential for time-dependent inhibition ([1]; Dextromethorphan O-demethylation): Little or No
inhibition at 49.5 µM ([1]; Dextromethorphan O-demethylation, 30-min preincubation, read-out: Time-dependent inhibition, maximum inhibition at 49.5 µM): 24%
inhibition at 49.5 µM ([1]; Dextromethorphan O-demethylation, zero-minute preincubation, read-out: Direct inhibition, maximum inhibition at 49.5 µM): 50%
IC50 ([1]; read-out: Time-dependent inhibition IC50, Dextromethorphan O-demethylation, 30-min preincubation): > 49.5 µM
IC50 [2]: > 49.5 µM
Potential for time-dependent inhibition ([2]; Chlorzoxazone 6-hydroxylation): Little or No
inhibition at 49.5 µM ([2]; Chlorzoxazone 6-hydroxylation, 30-min preincubation, read-out: Time-dependent inhibition, maximum inhibition at 49.5 µM): 17%
inhibition at 49.5 µM ([2]; Chlorzoxazone 6-hydroxylation, zero-minute preincubation, read-out: Direct inhibition, maximum inhibition at 49.5 µM): 19%
IC50 ([2]; read-out: Time-dependent inhibition IC50, Chlorzoxazone 6-hydroxylation, 30-min preincubation): > 49.5 µM
Induction of CYP3A4/5 activity (in words) ([3]; in vitro): did not induce
Induction of CYP3A4/5 activity ([3]; primary human hepatocyte cultures, enzyme activity quantification (testosterone 6β-hydroxylation)): less than 40 % of positive control
Potential for time-dependent inhibition [4]: Little or No
IC50 [4, 9]: 39 µM
inhibition at 49.5 µM ([4]; 30-min preincubation, read-out: Time-dependent inhibition, maximum inhibition at 49.5 µM): 52%
inhibition at 49.5 µM ([4]; zero-minute preincubation, read-out: Direct inhibition, maximum inhibition at 49.5 µM): 51%
IC50 [4, 10]: > 49.5 µM
Potential for time-dependent inhibition ([5]; Diclofenac 4-hydroxylation): Little or No
IC50 ([5]; Diclofenac 4-hydroxylation, 30-min preincubation, read-out: Time-dependent inhibition IC50): 23 µM
inhibition at 49.5 µM ([5]; Diclofenac 4-hydroxylation, 30-min preincubation, read-out: Time-dependent inhibition, maximum inhibition at 49.5 µM): 52%
inhibition at 49.5 µM ([5]; Diclofenac 4-hydroxylation, zero-minute preincubation, read-out: Direct inhibition, maximum inhibition at 49.5 µM): 58%
IC50 ([5]; human liver microsomes, Diclofenac 4-hydroxylation, zero-minute preincubation, read-out: Direct inhibition IC50): 27 µM
Ki ([5]; human liver microsomes, direct inhibition, read-out: Ki, CYP2C9-catalyzed probe substrate reaction): ≥ 11 µM
IC50 ([6]; Caco-2 cell monolayers, [3H]-digoxin probe substrate, read-out: Apparent IC50, P-gp inhibition): 410 nM
[I]/IC50 ratio (intestinal) [6, 11]: 8917
[I]/IC50 ratio (systemic) [6, 11]: 0.39
Induction of CYP2B6 activity [7]: less than 40 % of positive control
Potential for time-dependent inhibition [8]: Little or No
IC50 [8, 9]: 13 µM
Type of inhibition ([8]; direct inhibition): Mixed
inhibition at 49.5 µM ([8]; both sexes, human, pooled human liver microsomes, probe amodiaquine, zero-minute preincubation, 49.5 µM, read-out: Direct inhibition, maximum inhibition at 49.5 µM): 86%
Ki ([8]; human liver microsomes, read-out: Direct inhibition Ki): 11 µM
IC50 [8, 10]: 16 µM
